As usually defined, the IC50 is the concentration at which inhibition is half-maximal. High values mean a need for much substance, low ones inhibition by little substance.

Our source for the IC50 values is US8404680B2, “N-[3-(5-amino-3,3a,7,7a-tetrahydro-1H-2,4-dioxa-6-aza-inden-7-yl)-phenyl]-amides as BACE1 and/or BACE2 inhibitors” (Hoffmann-La Roche Inc., priority 2011, dated 2013).

The target in the first assay is T1, BACE1 (Homo sapiens, UniProt P56817).
T1 construct: Human HEK293 cells which are stably transfected with a vector expressing a cDNA of the human APP wt gene (APP695); endogenous in cells; host or cells: HEK293 (human), stably transfected with human APP695 wt
T1 sequence (P56817 46-501): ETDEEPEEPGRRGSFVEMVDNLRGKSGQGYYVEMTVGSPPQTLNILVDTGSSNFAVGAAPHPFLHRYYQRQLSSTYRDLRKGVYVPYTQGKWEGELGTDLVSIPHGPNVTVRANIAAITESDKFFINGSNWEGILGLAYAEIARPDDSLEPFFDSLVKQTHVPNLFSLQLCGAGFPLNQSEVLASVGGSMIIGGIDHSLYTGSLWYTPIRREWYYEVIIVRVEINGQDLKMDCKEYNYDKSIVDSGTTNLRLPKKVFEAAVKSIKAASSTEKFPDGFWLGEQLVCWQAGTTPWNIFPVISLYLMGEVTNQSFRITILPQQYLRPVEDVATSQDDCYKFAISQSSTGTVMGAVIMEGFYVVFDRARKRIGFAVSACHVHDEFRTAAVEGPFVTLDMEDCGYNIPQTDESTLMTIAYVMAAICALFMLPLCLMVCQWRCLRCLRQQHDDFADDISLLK
As to the kind of experiment: Cellular Aβ-lowering assay. The assay is classed as cell-based. The note with it: human HEK293 cells stably expressing human APP wt (APP695); Aβ40 in supernatant by ELISA after 18-20 hrs. Here is the method:
Cellular Aβ-Lowering Assay:
Human HEK293 cells which are stably transfected with a vector expressing a cDNA of the human APP wt gene (APP695) were used to assess the potency of the compounds in a cellular assay. The cells were seeded in 96-well microtiter plates in cell culture medium (Iscove, plus 10% (v/v) fetal bovine serum, glutamine, penicillin/streptomycin) to about 80% confluence and the compounds were added at a 10× concentration in 1/10 volume of medium without FCS containing 8% DMSO (final concentration of DMSO was kept at 0.8% v/v). After 18-20 hrs incubation at 37° C. and 5% CO2 in a humidified incubator the culture supernatant was harvested for the determination of Aβ40 concentrations. 96well ELISA plates (e.g., Nunc MaxiSorb) were coated with monoclonal antibody which specifically recognize the C-terminal end of Aβ40 (Brockhaus et al., NeuroReport 9, 1481-1486; 1998). After blocking of non-specific binding sites with e.g. 1% BSA and washing, the culture supernatants were added in suitable dilutions together with a horseradish peroxidase-coupled Aβ detection antibody (e.g., antibody 4G8, Senetek, Md. Heights, Mo.) and incubated for 5 to 7 hrs. Subsequently the wells of the microtiter plate were washed extensively with Tris-buffered saline containing 0.05% Tween 20 and the assay was developed with tetramethylbenzidine/H2O2 in citric acid buffer. After stopping the reaction with one volume 1 NH2SO4 the reaction was measured in an ELISA reader at 450 nm wavelength. The concentrations of Aβ in the culture supernatants were calculated from a standard curve obtained with known amounts of pure Aβ peptide.
In general terms: In an ELISA, binding on a coated surface is turned into a signal by an enzyme label.
For `C[C@]1(c2cc(NC(=O)c3ccc(Cl)cn3)ccc2F)N=C(N)O[C@]2(C(F)(F)F)COC[C@H]12` (racemic) [Example 21, N-(3-((4SR,4aSR,7aSR)-2-amino-4-methyl-7a-(trifluoromethyl)-4a,5,7,7a-tetrahydro-4H-furo[3,4-e][1,3]oxazin-4-yl)-4-fluorophenyl)-5-chloropicolinamide], the IC50 amounted to 34 nM.
On to `C[C@]1(c2cc(NC(=O)c3ccc(C#N)cn3)ccc2F)N=C(N)O[C@]2(C(F)(F)F)COC[C@H]12` (racemic) [Example 22, N-(3-((4SR,4aSR,7aSR)-2-amino-4-methyl-7a-(trifluoromethyl)-4a,5,7,7a-tetrahydro-4H-furo[3,4-e][1,3]oxazin-4-yl)-4-fluorophenyl)-5-cyanopicolinamide], for which the IC50 came to 7 nM.
Turning to `C[C@]1(c2cc(NC(=O)c3ccc(C#N)cn3)ccc2F)N=C(N)O[C@]2(C(F)(F)F)COC[C@H]12` (relative stereo) [Example 19, N-(3-(rel-(4SR,4aSR,7aSR)-2-amino-4-methyl-7a-(trifluoromethyl)-4a,5,7,7a-tetrahydro-4H-furo[3,4-e][1,3]oxazin-4-yl)-4-fluorophenyl)-5-cyanopicolinamide], the IC50 is 9 nM.
Same read-out and setting: as for `CC#CCOc1cnc(C(=O)Nc2ccc(F)c([C@@]3(C)N=C(N)O[C@]4(C(F)(F)F)COC[C@H]34)c2)cn1` (relative stereo) [Example 20, N-(3-(rel-(4SR,4aSR,7aSR)-2-amino-4-methyl-7a-(trifluoromethyl)-4a,5,7,7a-tetrahydro-4H-furo[3,4-e][1,3]oxazin-4-yl)-4-fluorophenyl)-5-(but-2-ynyloxy)pyrazine-2-carboxamide], the figure is 7 nM; as for `C[C@]1(c2cc(NC(=O)c3ccc(Cl)cn3)ccc2F)N=C(N)O[C@@H]2COC[C@@H]21` [Example 1, 5-Chloro-pyridine-2-carboxylic acid [3-((3aS,7S,7aS)-5-amino-7-methyl-3,3a,7,7a-tetrahydro-1H-2,4-dioxa-6-aza-inden-7-yl)-4-fluoro-phenyl]-amide], 0.7 nM; as for `C[C@]1(c2cc(NC(=O)c3ncc(Cl)cc3Cl)ccc2F)N=C(N)O[C@@H]2COC[C@@H]21` [Example 2, 3,5-Dichloro-pyridine-2-carboxylic acid [3-((3aS,7S,7aS)-5-amino-7-methyl-3,3a,7,7a-tetrahydro-1H-2,4-dioxa-6-aza-inden-7-yl)-4-fluoro-phenyl]-amide], 0.8 nM.
Same read-out and setting: as for `C[C@]1(c2cc(NC(=O)c3ccc(F)cn3)ccc2F)N=C(N)O[C@@H]2COC[C@@H]21` [Example 3, 5-Fluoro-pyridine-2-carboxylic acid [3-((3aS,7S,7aS)-5-amino-7-methyl-3,3a,7,7a-tetrahydro-4H-2,4-dioxa-6-aza-inden-7-yl)-4-fluoro-phenyl]-amide], the figure is 2.5 nM; as for `C[C@]1(c2cc(NC(=O)c3ccc(OCC4CC4)cn3)ccc2F)N=C(N)O[C@@H]2COC[C@@H]21` [Example 9, 5-Cyclopropylmethoxy-pyridine-2-carboxylic acid [3-((3aS,7S,7aS)-5-amino-7-methyl-3,3a,7,7a-tetrahydro-1H-2,4-dioxa-6-aza-inden-7-yl)-4-fluoro-phenyl]-amide], 5 nM; as for `CC#CCOc1ccc(C(=O)Nc2ccc(F)c([C@@]3(C)N=C(N)O[C@@H]4COC[C@@H]43)c2)nc1` [Example 10, 5-But-2-ynyloxy-pyridine-2-carboxylic acid [3-((3aS,7S,7aS)-5-amino-7-methyl-3,3a,7,7a-tetrahydro-1H-2,4-dioxa-6-aza-inden-7-yl)-4-fluoro-phenyl]-amide], 0.1 nM.
Molecule `C[C@]1(c2cc(NC(=O)c3ccc(OCC(F)(F)C(F)F)cn3)ccc2F)N=C(N)O[C@@H]2COC[C@@H]21` [Example 11, 5-(2,2,3,3-Tetrafluoro-propoxy)-pyridine-2-carboxylic acid [3-((3aS,7S,7aS)-5-amino-7-methyl-3,3a,7,7a-tetrahydro-1H-2,4-dioxa-6-aza-inden-7-yl)-4-fluoro-phenyl]-amide] yielded an IC50 of 5 nM.
Take `C[C@]1(c2cc(NC(=O)c3ncc(C#N)cc3Cl)ccc2F)N=C(N)O[C@@H]2COC[C@@H]21` [Example 12, N-(3-((4S,4aS,7aS)-2-amino-4-methyl-4a,5,7,7a-tetrahydro-4H-furo[3,4-e][1,3]oxazin-4-yl)-4-fluorophenyl)-3-chloro-5-cyanopicolinamide]: the IC50 amounted to 1 nM.
On the same count and under the same terms, under `N#Cc1ccc(C(=O)Nc2ccc(F)c([C@@]3(CF)N=C(N)O[C@@H]4COC[C@@H]43)c2)nc1` [Example 13, 5-Cyano-pyridine-2-carboxylic acid [3-((3aS,7S,7aS)-5-amino-7-fluoromethyl-3,3a,7,7a-tetrahydro-1H-2,4-dioxa-6-aza-inden-7-yl)-4-fluoro-phenyl]-amide] stands 1 nM; under `NC1=N[C@](CF)(c2cc(NC(=O)c3ccc(Cl)cn3)ccc2F)[C@H]2COC[C@H]2O1` [Example 14, 5-Chloro-pyridine-2-carboxylic acid [3-((3aS,7S,7aS)-5-amino-7-fluoromethyl-3,3a,7,7a-tetrahydro-1H-2,4-dioxa-6-aza-inden-7-yl)-4-fluoro-phenyl]-amide], 1 nM; under `NC1=N[C@](CF)(c2cc(NC(=O)c3ccc(F)cn3)ccc2F)[C@H]2COC[C@H]2O1` [Example 15, 5-Fluoro-pyridine-2-carboxylic acid [3-((3aS,7S,7aS)-5-amino-7-fluoromethyl-3,3a,7,7a-tetrahydro-1H-2,4-dioxa-6-aza-inden-7-yl)-4-fluoro-phenyl]-amide], 2.5 nM.
Still for that read-out and setting: under `NC1=N[C@@](c2cc(NC(=O)c3ccc(Cl)cn3)ccc2F)(C(F)F)[C@H]2COC[C@H]2O1` [Example 16, 5-Chloro-pyridine-2-carboxylic acid [3-((3aS,7S,7aS)-5-amino-7-difluoromethyl-3,3a,7,7a-tetrahydro-1H-2,4-dioxa-6-aza-inden-7-yl)-4-fluoro-phenyl]-amide] stands 5.5 nM.

The next assay concerns the target T2, BACE2 (Rattus norvegicus, UniProt Q6IE75).
T2 construct: endogenous cellular BACE2 in the Ins1e rat cell line; endogenous in cells; host or cells: INS-TMEM27 (INS1e-derived rat cell line, TetOn-inducible full-length hTMEM27)
T2 sequence (Q6IE75 63-514): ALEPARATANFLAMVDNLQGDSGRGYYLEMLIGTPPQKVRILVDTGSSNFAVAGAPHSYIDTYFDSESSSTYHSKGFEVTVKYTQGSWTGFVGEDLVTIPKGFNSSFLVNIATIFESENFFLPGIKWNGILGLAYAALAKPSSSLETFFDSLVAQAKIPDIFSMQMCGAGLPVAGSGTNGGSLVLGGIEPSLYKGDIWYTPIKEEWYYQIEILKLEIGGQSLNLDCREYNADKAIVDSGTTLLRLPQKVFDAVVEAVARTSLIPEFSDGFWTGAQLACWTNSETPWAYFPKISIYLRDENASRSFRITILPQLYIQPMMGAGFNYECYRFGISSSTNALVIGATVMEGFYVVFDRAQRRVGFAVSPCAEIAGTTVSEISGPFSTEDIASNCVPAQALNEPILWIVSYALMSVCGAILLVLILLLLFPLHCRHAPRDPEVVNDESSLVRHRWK
As to the kind of experiment: Assay for BACE inhibition by measuring cellular TMEM27 cleavage. It counts as cell-based. The note with it: INS-TMEM27 (INS1e-derived rat cell line, inducible hTMEM27); shed TMEM27 in medium by ELISA. The source says:
Assay for BACE Inhibition by Measuring Cellular TMEM27 Cleavage:
The assay uses the principle of inhibition of human TMEM27 cleavage by endogenous cellular BACE2 in the Ins1e rat cell line and shedding from the cell surface into the culture medium, followed by detection in an ELISA assay Inhibition of BACE2 prevents the cleavage and shedding in a dose-dependent manner.
The stable cell line “INS-TMEM27” represents an INS1e-derived cell line with inducible expression (using the TetOn system) of full-length hTMEM27 in a doxycycline-dependent manner. The cells are cultured throughout the experiment in RPMI1640+ Glutamax (Invitrogen) Penicillin/Streptomycin, 10% Fetal bovine serum, […], […], 100 micrograms/ml G418 and 100 microgram/ml hygromycin and are grown inadherent culture at 37° C. in a standard CO2 cell culture incubator.
INS-TMEM27 cells are seeded in 96-well plates. After 2 days in culture, BACE2 inhibitor is added in a range of concentrations as required by the assay and after a further two hours, doxycycline is added to a final concentration of 500 ng/ml. The cells are incubated for a further 46 hours and the supernatant harvested for detection of shed TMEM27.
An ELISA assay (using a pair of mouse anti-human-TMEM27 antibodies, raised against the extracellular domain of TMEM27) is used for detection of TMEM27 in the culture medium. An EC50 for BACE2 inhibition is calculated using the ELISA readout for each inhibitor concentration with standard curve-fitting software such as XLFit for the Excel spreadsheet program.
`C[C@]1(c2cc(NC(=O)c3ccc(Cl)cn3)ccc2F)N=C(N)O[C@@H]2COC[C@@H]21` [Example 1, 5-Chloro-pyridine-2-carboxylic acid [3-((3aS,7S,7aS)-5-amino-7-methyl-3,3a,7,7a-tetrahydro-1H-2,4-dioxa-6-aza-inden-7-yl)-4-fluoro-phenyl]-amide] registered an IC50 of 36 nM.
Still for that read-out and setting: as for `C[C@]1(c2cc(NC(=O)c3ncc(Cl)cc3Cl)ccc2F)N=C(N)O[C@@H]2COC[C@@H]21` [Example 2, 3,5-Dichloro-pyridine-2-carboxylic acid [3-((3aS,7S,7aS)-5-amino-7-methyl-3,3a,7,7a-tetrahydro-1H-2,4-dioxa-6-aza-inden-7-yl)-4-fluoro-phenyl]-amide], the figure is 14 nM; as for `C[C@]1(c2cc(NC(=O)c3ccc(F)cn3)ccc2F)N=C(N)O[C@@H]2COC[C@@H]21` [Example 3, 5-Fluoro-pyridine-2-carboxylic acid [3-((3aS,7S,7aS)-5-amino-7-methyl-3,3a,7,7a-tetrahydro-4H-2,4-dioxa-6-aza-inden-7-yl)-4-fluoro-phenyl]-amide], 18 nM.
`C[C@]1(c2cc(NC(=O)c3ccc(C#N)cn3)ccc2F)N=C(N)O[C@@H]2COC[C@@H]21` [Example 4, 5-Cyano-pyridine-2-carboxylic acid [3-((3aS,7S,7aS)-5-amino-7-methyl-3,3a,7,7a-tetrahydro-4H-2,4-dioxa-6-aza-inden-7-yl)-4-fluoro-phenyl]-amide] displayed an IC50 of 17 nM.
`CC#CCOc1cnc(C(=O)Nc2ccc(F)c([C@@]3(C)N=C(N)O[C@@H]4COC[C@@H]43)c2)cn1` [Example 7, 5-But-2-ynyloxy-pyrazine-2-carboxylic acid [3-((3aS,7S,7aS)-5-amino-7-methyl-3,3a,7,7a-tetrahydro-4H-2,4-dioxa-6-aza-inden-7-yl)-4-fluoro-phenyl]-amide] displayed a half-maximal inhibitory concentration (IC50) of 47 nM.
